Results reported in ChEMBL document CHEMBL4138296, “Nonacidic Chemotype Possessing N-Acylated Piperidine Moiety as Potent Farnesoid X Receptor (FXR) Antagonists” (ACS Med Chem Lett, 2018).
The source made the active and inactive calls. The calls are words filed in the database; no cut-off is given here.

Columns and labels:
[1] = target: T1, Bile acid receptor (Homo sapiens, UniProt Q96RI1); assay: Antagonist activity at human FXR expressed in Hep3B cells assessed as inhibition of CDCA-induced FXR response element driven luciferase activity after 24 hrs; assay type: cell-based
T1 sequence (Q96RI1 whole entry): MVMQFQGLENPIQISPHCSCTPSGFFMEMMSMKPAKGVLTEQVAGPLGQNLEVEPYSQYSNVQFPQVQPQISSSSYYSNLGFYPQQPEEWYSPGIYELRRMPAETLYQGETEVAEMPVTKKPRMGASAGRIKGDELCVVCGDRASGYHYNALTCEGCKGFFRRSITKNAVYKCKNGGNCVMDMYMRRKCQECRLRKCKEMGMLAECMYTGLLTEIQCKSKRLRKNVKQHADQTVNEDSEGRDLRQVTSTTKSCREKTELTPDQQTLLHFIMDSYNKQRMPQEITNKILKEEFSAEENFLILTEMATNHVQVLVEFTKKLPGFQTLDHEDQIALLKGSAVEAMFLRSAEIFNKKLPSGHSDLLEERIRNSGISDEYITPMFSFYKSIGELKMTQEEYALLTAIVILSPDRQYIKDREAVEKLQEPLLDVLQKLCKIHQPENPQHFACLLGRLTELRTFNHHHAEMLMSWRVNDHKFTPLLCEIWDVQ

[2] = target: T1, Bile acid receptor; assay: Antagonist activity at GST-tagged FXR LBD (unknown origin) assessed as inhibition of GW4064-induced fluorecein-labeled SRC2-2 coactivator recruitment by Lanthascreen TR-FRET assay
[3] = test system: Hep 3B2; assay: Cytotoxicity against human Hep3B cells assessed as reduction in cell viability by MTT assay; assay type: functional, cell-based
[4] = test system: 3T3-L1; assay: Antiadipogenic activity in mouse 3T3L1 cells assessed as reduction in intracellular lipid droplets at 10 uM after 6 days by Oil Red O staining based assay; assay type: functional, cell-based
[5] = test system: 3T3-L1; assay: Antiadipogenic activity in mouse 3T3L1 cells assessed as inhibition of CDCA-induced intracellular lipid droplets after 6 days by Oil Red O staining based assay; assay type: functional, cell-based

IC50 [1] | IC50 [2] | SMILES | IC50 [3] | Activity [4] | inhibition [5]
17400 nM | 16400 nM | Cc1ccc2nc([C@H](CC3CCN(CC(C)C)CC3)N3C(=O)CN(c4ccc(Oc5ccccc5)cc4)C3=O)n(C)c2c1 | 6900 nM | – | –
4510 nM | 64000 nM | Cc1ccc2nc([C@H](CC3CCNCC3)N3C(=O)CN(c4ccc(Oc5ccccc5)cc4)C3=O)n(C)c2c1 | 16700 nM | – | –
0.2 nM | 1300 nM | CC(=O)N1CCC(C[C@@H](c2nc3ccc(C)cc3n2C)N2C(=O)CN(c3ccc(Oc4ccccc4)cc3)C2=O)CC1 | 17200 nM | – | –
0.8 nM | 3500 nM | CC(=O)N1CCC(C[C@@H](c2nc3ccc(Cl)cc3n2C)N2C(=O)CN(c3ccc(Oc4ccccc4)cc3)C2=O)CC1 | > 100000 nM | – | –
0.006 nM | 30 nM | Cc1ccc2nc([C@H](CC3CCN(C(=O)C4CCCC4)CC3)N3C(=O)CN(c4ccc(Oc5ccccc5)cc4)C3=O)n(C)c2c1 | > 100000 nM | – | –

The next lines start with the molecule.

SMILES | IC50 [1] | IC50 [2] | IC50 [3] | Activity [4] | inhibition [5]
CC(C)C(=O)N1CCC(C[C@@H](c2nc3cc(F)ccc3n2C)N2C(=O)CN(c3ccc(Oc4ccccc4)cc3)C2=O)CC1 | 0.06 nM | 340 nM | > 100000 nM | – | –
C/C=C1/C(=O)C[C@H]2[C@@H]3CCC4=CC(=O)CC[C@]4(C)[C@H]3CC[C@]12C | – | – | – | Active | Dose-dependent effect
CC(=O)N1CCC(C[C@@H](c2nc3cc(F)ccc3n2C)N2C(=O)CN(c3ccc(Oc4ccccc4)cc3)C2=O)CC1 | 1 nM | 8300 nM | > 100000 nM | – | –
CC(C)C(=O)N1CCC(C[C@@H](c2nc3ccc(Cl)cc3n2C)N2C(=O)CN(c3ccc(Oc4ccccc4)cc3)C2=O)CC1 | 0.05 nM | 130 nM | > 100000 nM | – | –
CC(=O)N1CCC(C[C@@H](c2nc3ccccc3n2C)N2C(=O)CN(c3ccc(Oc4ccccc4)cc3)C2=O)CC1 | 0.002 nM | 740 nM | 32100 nM | – | –
CC(C)C(=O)N1CCC(C[C@@H](c2nc3ccccc3n2C)N2C(=O)CN(c3ccc(Oc4ccccc4)cc3)C2=O)CC1 | < 0.001 nM | 38 nM | > 100000 nM | – | –
